Results as given in patent publication US20140038883A1, “NOVEL AZACOUMARIN DERIVATIVES HAVING MDR PUMP INHIBITING ACTIVITY” (UNIVERSITE CLAUDE BERNARD LYON 1, priority 2011, published 2014).

Columns and labels:
[1] = test system: S. aureus 1199b overexpressing NorA; assay: Supplemental EPI tests: potentiation of antibiotic MICs; format: cell-based, Staphylococcus aureus; settings: for potentiating activity in the presence of tetracycline and of erythromycin: 1199b strain
Protocol: (§1) The molecules of which the EPI effect was evaluated are: I.1 (24 μmol/l), I.6 (16 μmol/l) and I.14 (31 μmol/l).
(§2) The antibiotics with which these molecules were combined are: ciprofloxacin and norfloxacin; tetracycline; oxacillin; erythromycin and vancomycin.
(§3) The bacterial strains tested are S. aureusATCC 29213; S. aureus 1199b overexpressing NorA and also S. aureus 1199, the strain from which it is derived; S. aureus K1712 not expressing NorA and also S. aureus 8325.4 (the strain from which it is derived).
(§4) The methodology used is based on the MIC technique described previously.

[2] = test system: S. aureus ATCC 29213, 1199b, 1199, K1712, 8325.4; assay: as above; format: cell-based, Staphylococcus aureus
Protocol: as §1, §2, §3, §4

[3] = test system: S. aureus ATCC 29213; assay: Antibiotic activity of the compounds alone (MIC technique); format: cell-based, Staphylococcus aureus; settings: compound alone, 18-24 h at 37° C., MH II medium
Protocol: All the compounds according to the invention are solubilized in dimethylsufoxide (DMSO). For each compound, the highest concentration usable during the experiments is determined by taking into account the toxicity of the solvent (final concentration of DMSO in contact with the bacteria of less than 3%) and also the capacity of the compound to solubilize in Mueller Hinton II (MH II) media. This is because some compounds precipitate during dilutions of solutions based on DMSO in MH II media. The strain for screening the compounds is a strain of Staphylococcus aureus from the American Type Culture Collection or ATCC, called S. aureus ATCC 29213. The antibiotic activity of a molecule is evaluated using the MIC technique. The MIC of a molecule is determined in a 96-well microplate, in MH II liquid medium according to the protocol of the CASFM and of the CLSI. A dilution range of the molecule is prepared beforehand in MH II medium. In each well, 100 μl of a bacterial suspension of SI aureus ATCC 29213 (10^6 CFU/ml), 50 μl of the dilution range of the compound tested and 50 μl of MH II are mixed. After 18-24 h of incubation at 37° C., the molecules having shown an inhibition of bacterial growth are recorded as having an antibiotic activity. The lowest concentration of compound for which no bacterial growth is observed is the MIC (lowest concentration inhibiting the growth of the bacteria).

[4] = test system: Fifty-six strains belonging to 19 genera; assay: Spectrum of activity: potentiating effect of compound I.12 on ciprofloxacin (MIC method); format: cell-based
Protocol: (§5) The antibiotic used is ciprofloxacin with the same dilution as in section B.1. The compound I.12 is also used under the same conditions as in section B.1.
(§6) Fifty-six strains belonging to 19 genera were used (TABLE 6).
(§7) Nine of these strains are ATCC strains and 47 are of clinical origins and come from the Centre de Biologie Est [Eastern Biological Center] in Bron. Eighteen staphylococcal strains are tested: 1 strain of S. epidermidis, 2 strains of S. aureus, 10 MRSA (methicillin-resistant S. aureus) and 5 VISA (vancomycin intermediate sensitivity S. aureus). Sixteen enterococcal strains are also tested, i.e. 9 E. faecium and 7 E. faecalis. The latter 2 species grouped together 2 vancomycin-sensitive strains (1 per species), and 14 resistant strains (VRE, respectively 8 E. faecium and 6 E. faecalis).
(§8) This potentiating effect is evaluated as previously. However, the growth of certain microorganisms (Streptococcus pneumoniae, S. agalactiae, S. pyogenes, Corynebacterium amycolatum and Listeria monocytogenes) in liquid medium requires defibrinated horse blood lysed in 50% of sterile osmosed water via a succession of 7 freezings (−20° C.)/thawing (ambient temperature). The 50% blood is then centrifuged at ambient temperature at 12 000 rpm for 20 min. The supernatant is introduced into sterile, additive-free MH II in an amount of 5% by volume.

[5] = test system: Staphylococcus aureus (MSSA, MRSA, VISA strains); assay: Spectrum of activity: I.12 + ciprofloxacin, S. aureus strains; format: cell-based; settings: for Number of sensitive strains / Percentage of sensitive strains: ciprofloxacin + I.12
Protocol: as §5, §6, §7, §8

[6] = test system: Staphylococcus epidermidis; assay: Spectrum of activity: I.12 + ciprofloxacin, S. epidermidis; format: cell-based
Protocol: as §5, §6, §7, §8

[7] = test system: Enterococcus faecalis (VSE, VRE strains); assay: Spectrum of activity: I.12 + ciprofloxacin, E. faecalis strains; format: cell-based; settings: for Number of sensitive strains / Percentage of sensitive strains: ciprofloxacin + I.12
Protocol: as §5, §6, §7, §8

[8] = test system: Enterococcus faecium (VSE, VRE strains); assay: Spectrum of activity: I.12 + ciprofloxacin, E. faecium strains; format: cell-based; settings: for Number of sensitive strains / Percentage of sensitive strains: ciprofloxacin + I.12
Protocol: as §5, §6, §7, §8

[9] = test system: S. aureus ATCC 29213; assay: Chessboard method, I.12 combined with antibiotics (FIC); format: cell-based, Staphylococcus aureus; settings: I.12 and ciprofloxacin; FIC≦0.5 = synergy
Protocol: The antibiotics used are erythromycin, ciprofloxacin, vancomycin, tetracycline and oxacillin.
The sensitivity of S. aureus ATCC 29213 to the combination of the antibiotic molecules ciprofloxacin and the compound I.12 and the effect of each of the two molecules on the activity of the other are determined using the chessboard method. This method is carried out in a round-bottomed 96-well plate (12 columns by 8 rows). Various concentrations of ciprofloxacin and of compound I.12 are obtained by a dilution of their stock solutions in MH II broth. Fifty microliters of the dilution range of the compound I.12 are deposited in each well of columns 1 to 10, each row corresponding to a dilution of this compound. Fifty microliters of the dilution range of ciprofloxacin are deposited in the wells of columns 2 to 10, each column corresponding to a dilution. This same dilution range of ciprofloxacin is also prepared in column 11. Fifty microliters of MH II broth are deposited in the wells of columns 1 and 11. Finally, 100 μl of bacterial suspension at 10^6 CFU (Colony-Forming Units)/ml are introduced in each well of columns 1 to 10 (final concentration of bacteria: 5×10^5 CFU/ml).
The plate is read visually. […] The fractional inhibitory concentration (FIC) is calculated by adding the FIC of the compound I.12 (FICI.12) and the FIC of ciprofloxacin (FICcipro) according to the following formulae: […]

[10] = test system: MRSA (strain ST07 1012); assay: Chessboard method, I.12 combined with ciprofloxacin (FIC); format: cell-based, Staphylococcus aureus; settings: I.12 and ciprofloxacin; FIC≦0.5 = synergy
[11] = test system: VISA (strain V4); assay: as above; format: cell-based, Staphylococcus aureus; settings: I.12 and ciprofloxacin; FIC≦0.5 = synergy
[12] = test system: S. aureus K 1712 (strain without NorA pump); assay: Chessboard method, I.12 combined with antibiotics; format: cell-based, Staphylococcus aureus; settings: each ATB
[13] = test system: S. aureus 1199B (strain overexpressing NorA); assay: Chessboard method, I.12 combined with antibiotics; format: cell-based, Staphylococcus aureus
[14] = test system: S. aureus ATCC 29213; assay: Time kill curve method, I.12/ciprofloxacin combination; format: cell-based, Staphylococcus aureus; settings: ciprofloxacin (0.5 mg/ml and 0.125 mg/m)/I.12 (31 μM); mean of two experiments
Protocol: The time kill curve is performed in 6-well plates. Each well contains 5 ml of MH II broth inoculated with bacteria in the exponential growth phase (final concentrations at 10^6 CFU/ml). The various bacterial growth conditions tested are: • Well 1: 0.5 mg/ml of ciprofloxacin +31 μM of I.12. • Well 2: 0.125 mg/ml of ciprofloxacin +31 μM of I.12. • Well 3: 0.5 mg/ml of ciprofloxacin. • Well 4: 0.125 mg/ml of ciprofloxacin. • Well 5: 31 μM of I.12. • Well 6: No molecule.
The cultures are incubated at 37° C. with shaking at 400 rpm. Samples are taken every hour for the first 6 hours, and at 22 hours. The live bacteria are counted by culturing on a dish after dilutions of the cultures.

[15] = test system: S. aureus K1712 not expressing NorA; assay: Supplemental EPI tests: potentiation of antibiotic MICs; format: cell-based, Staphylococcus aureus; settings: strain not expressing NorA
Protocol: as §1, §2, §3, §4

COc1cc(O)c2c3c(c(=O)[nH]c2c1)CCC3 [compound I.15, 2,3-dihydro-9-hydroxy-7-methoxy-1H-cyclopenta[c]quinolin-4(5H)-one]
melting point: 189 to 190 °C

COc1cc(O)c2c(C)c(Cc3ccccc3)c(=O)[nH]c2c1 [compound I.14, 3-benzyl-5-hydroxy-7-methoxy-4-methylquinolin-2(1H)-one]
potentiating activity in the presence of tetracycline and of erythromycin [1]: weak activity
improvement in the MICs (fold) in the presence of norfloxacin and of ciprofloxacin ([2]; I.1 24 μmol/l, I.6 16 μmol/l, I.14 31 μmol/l): results are identical
melting point: > 278 °C (dec.)

Cc1c(-c2ccccc2)c(=O)[nH]c2cc(O)cc(O)c12 [compound I.13, 5,7-dihydroxy-4-methyl-3-phenylquinolin-2(1H)-one]
antibiotic activity alone, concentration (MIC) [3]: 155 µM

COc1cc(O)c2c(C)c(-c3ccccc3)c(=O)[nH]c2c1 [compound I.12, 5-hydroxy-7-methoxy-4-methyl-3-phenylquinolin-2(1H)-one]
number of strains more sensitive to ciprofloxacin when the compound is combined ([4]; among the 56 bacterial strains tested): 28
factor by which the ciprofloxacin MICs are divided in the presence of the compound ([4]; each of the 28 sensitive strains, except one): 16
factor by which the ciprofloxacin MIC is divided in the presence of the compound ([4]; the one exception among the 28 sensitive strains): ≥ 4
Number of sensitive strains ([5]; MRSA, 10 strains tested): 10
Percentage of sensitive strains ([5]; MRSA): 100%
Number of sensitive strains ([5]; MSSA, 2 strains tested): 2
Percentage of sensitive strains ([5]; MSSA): 100%
sensitive strains / strains tested, combination with ciprofloxacin ([5]; S. aureus sensitive to conventional antibiotics): 2/2
sensitive strains / strains tested, combination with ciprofloxacin ([5]; S. aureus with reduced sensitivity to vancomycin (VISA)): 5/5
Number of sensitive strains ([5]; VISA, 5 strains tested): 5
Percentage of sensitive strains ([5]; VISA): 100%
sensitive strains / strains tested, combination with ciprofloxacin ([5]; methicillin-resistant S. aureus (MRSA)): 10/10
sensitive strains / strains tested, combination with ciprofloxacin ([6]; S. epidermidis): 1/1
Number of sensitive strains ([6]; S. epidermidis sensitive strain, 1 tested, ciprofloxacin + I.12): 1
Percentage of sensitive strains ([6]; S. epidermidis sensitive strain, ciprofloxacin + I.12): 100%
sensitive strains / strains tested, combination with ciprofloxacin ([7]; E. faecalis (4 are VREs)): 5/7
Number of sensitive strains ([7]; E. faecalis VRE, 6 tested): 4
Percentage of sensitive strains ([7]; E. faecalis VRE): 67%
Number of sensitive strains ([7]; E. faecalis VSE, 1 tested): 1
Percentage of sensitive strains ([7]; E. faecalis VSE): 100%
sensitive strains / strains tested, combination with ciprofloxacin ([8]; E. faecium (the 5 being VREs)): 5/9
Number of sensitive strains ([8]; E. faecium VRE, 8 tested): 5
Percentage of sensitive strains ([8]; E. faecium VRE): 62.5%
Number of sensitive strains ([8]; E. faecium VSE, 1 tested): 0
Percentage of sensitive strains ([8]; E. faecium VSE): 0
factor by which the ciprofloxacin MIC is divided in the presence of the compound ([8]; two E. faecium VRE strains not listed in the 28, weakly sensitive): ≥ 2
FIC (fractional inhibitory concentration) [9]: ≤ 0.5
FIC (fractional inhibitory concentration) [10]: ≤ 0.5
FIC (fractional inhibitory concentration) [11]: ≤ 0.5
interaction with antibiotics (chessboard) [12]: absence of interaction
interaction with antibiotics (chessboard) [13]: highly synergistic combination
reduction of CFU/ml of the combination versus the most active molecule alone (synergistic effect) [14]: ≥ 2 log10

COc1cc(OC)c2c(C)c(-c3cccc(Cl)c3)c(=O)[nH]c2c1 [compound I.1, 3-(3-chlorophenyl)-5,7-dimethoxy-4-methylquinolin-2(1H)-one]
EPI effects of the compound in combination with antibiotics ([2]; I.1 at 24 μmol/l): minor

COc1cc(OC)c2c(C)c(-c3c[nH]c4ccccc34)c(=O)[nH]c2c1 [compound I.6, 3-(1H-indol-3-yl)-5,7-dimethoxy-4-methylquinolin-2(1H)-one]
potentiating activity in the presence of tetracycline and of erythromycin [1]: does not exist
potentiating activity combined with one of the two fluoroquinolones ([1]; norfloxacin or ciprofloxacin, strain overexpressing NorA): particularly notable
potentiating activity coupled to non-fluoroquinolone antibiotics ([2]; tetracycline, oxacillin, erythromycin, vancomycin): not very effective
potentiating activity of the combinations [15]: zero
